{"source": "patent US7098195B2", "about": "“Fluorinated glucosamine analogs useful for modulating post-translational glycosylations on cells” (Health Research, Inc., priority 2001, dated 2006)", "key": {"HECA-452 epitopes": {"tested_on": "HECA-452 epitopes", "assay": "Flow cytometric analysis of HECA-452 epitopes on human T-lymphocytes", "format": "cell-based", "conditions": "for HECA-452 Mean Channel Fluorescence: CLA+ T-cells", "method": "Only positive cells, which were those cells with fluorescence above background autofluorescence and fluorochrome-conjugated secondary Ab staining, were analyzed.\nFor analysis of CLA expression on T-cells treated with glycoconjugate modifiers, CLA^+ T-cells were first pretreated with neuraminidase (0.1 U/ml at 37° C. for 1 h) to eliminate functional CLA and cleave all HECA-452 reactive epitopes from the cell surface (35–38). Since we wanted to investigate whether these compounds directly affected CLA expression and function, neuraminidase pretreatment followed by incubations with glycosylation modifiers allowed for examination of de novo synthesized CLA/HECA-452 epitopes re-expressed on the cell surface. After neuraminidase digestion, cells were then incubated with tunicamycin (0.02 mM) (an inhibitor of GlcNAc phosphotransferase, the initial step of N-glycosylation), swainsonine (0.23 mM) (an inhibitor of α-mannosidase II and complex-type N-glycosylation), 4-F-GlcNAc (0.05 mM) (putative inhibitor of poly-N-acetyllactosamine biosynthesis), BAG (an inhibitor of O-glycan biosynthesis) (<2 mM) or GlcNAc (5 mM) (negative control, naturally-occurring metabolic counterpart of 4-F-GlcNAc)for 30 h in the presence of human recombinant IL-2. […] Concentrations for BAG were selected based on maximal O-glycosylation inhibitory effects at non-growth inhibitory concentrations as previously reported (39). To determine a suitable concentration of 4-F-GlcNAc for examining glycoconjugate-modifying effects without influencing cell growth or protein synthesis, we performed preliminary growth inhibitory experiments of cells incubated with 4-F-GlcNAc for 2 cell doublings (˜36 h) at 37° C. (cell viability assessed by Trypan-blue exclusion).\nFlow cytometric analysis was performed on human leukocytes utilizing both direct and indirect immunofluorescence staining approaches. All cells utilized for these experiments were washed twice with cold PBS/2%FBS and suspended at 10^7/ml PBS/1% FBS. Primary antibodies, anti-CLA (HECA-452), -CD4, -CD8, CD43 (L60) and PSGL-1 (PL-2) along with the appropriate isotype-matched control antibodies were incubated with the cells for 30 min on ice. Following two washes with PBS/2%FBS, cells were resuspended in PBS/1%FBS and fluorochrome-conjugated secondary antibodies (2 μl) and incubated for 30 min on ice."}, "[1]": {"tested_on": "human ovarian, A121, tumor cells", "conditions": "cited from earlier work"}}, "data": [{"smiles": "CC(=O)N[C@H]1C(OC(C)=O)O[C@H](COC(C)=O)[C@@H](F)[C@@H]1OC(C)=O", "note": "(stereo partly drawn) [4-F-GlcNAc, 2-acetamido-2-deoxy-1,3,6-tri-O-acetyl-4-deoxy-4-fluoro-D-glucopyranose]", "values": [{"measurement": "HECA-452 epitopes on CLA+ T-cells", "setting": "HECA-452 epitopes; 0.05, 0.1 or 0.5 mM for 30 hr after neuraminidase", "value": "marked, concentration-dependent decrease"}, {"measurement": "HECA-452 Mean Channel Fluorescence", "setting": "HECA-452 epitopes; neuraminidase then recovery in 0.05 mM", "value": 228}, {"measurement": "HECA-452 Mean Channel Fluorescence", "setting": "HECA-452 epitopes; neuraminidase then recovery in 0.1 mM", "value": 217}, {"measurement": "HECA-452 Mean Channel Fluorescence", "setting": "HECA-452 epitopes; neuraminidase then recovery in 0.5 mM", "value": 62}, {"measurement": "incorporation of radiolabeled sugar precursors", "setting": "[1]", "value": "conspicuous reductions"}]}]}
